In series [1] the test system is sciatic nerve. Briefly: Rat sciatic nerve block: nociceptive axon blockade (hotplate thermal latency). It counts as in vivo, Sprague-Dawley rats.
The test system of series [2] is sciatic nerve. Briefly: Rat sciatic nerve block: motor axon blockade (weight-bearing test). The format is in vivo, Sprague-Dawley rats.
The target of series [3] is GLUT1 (Homo sapiens, UniProt P11166). The following applies: cited from earlier work.
Series [4] has as its target GLUT3 (Homo sapiens, UniProt P11169). The settings on record: read-out: Km for GLUT3; cited from earlier work.
For series [5], the system named is rats. The following applies: rat, in vivo.
The test system of series [6] is sciatic nerve. The settings on record: rat, in vivo.
In series [7] the test system is rats. The settings on record: rat, in vivo. The source holds these as a separate data set.
The test system of series [8] is sciatic nerves and surrounding tissues. The settings on record: rat, in vivo.
Series [9] in a line: Log P. The following applies: octanol/water.
The subject of series [10] is Esterase (from porcine liver). The following applies: pig.
The mark [11] stands for this setting: read-out: Km (transporter protein affinity for sugar molecules).

Values joined by “and” are separate entries in the source; they are usually repeats but may differ in a detail not shown here. Identical values can stand only once. “Also recorded” adds a separate entry of the source. Like-named read-outs stand apart in the source and are kept apart here.

Chain of GLUT1 (P11166 whole entry, species assumed): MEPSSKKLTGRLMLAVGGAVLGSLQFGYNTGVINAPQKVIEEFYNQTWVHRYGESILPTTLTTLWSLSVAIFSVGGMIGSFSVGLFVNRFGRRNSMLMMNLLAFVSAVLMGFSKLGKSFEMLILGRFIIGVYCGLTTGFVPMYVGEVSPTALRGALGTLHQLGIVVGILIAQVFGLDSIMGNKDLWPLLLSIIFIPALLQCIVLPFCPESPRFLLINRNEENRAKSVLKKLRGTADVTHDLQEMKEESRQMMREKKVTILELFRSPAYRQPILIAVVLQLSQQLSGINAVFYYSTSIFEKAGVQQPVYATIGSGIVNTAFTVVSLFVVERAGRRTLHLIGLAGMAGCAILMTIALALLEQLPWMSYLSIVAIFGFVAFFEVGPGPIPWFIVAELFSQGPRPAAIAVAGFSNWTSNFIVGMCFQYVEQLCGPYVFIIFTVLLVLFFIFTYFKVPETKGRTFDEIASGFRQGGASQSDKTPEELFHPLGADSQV
Chain of GLUT3 (P11169 whole entry, species assumed): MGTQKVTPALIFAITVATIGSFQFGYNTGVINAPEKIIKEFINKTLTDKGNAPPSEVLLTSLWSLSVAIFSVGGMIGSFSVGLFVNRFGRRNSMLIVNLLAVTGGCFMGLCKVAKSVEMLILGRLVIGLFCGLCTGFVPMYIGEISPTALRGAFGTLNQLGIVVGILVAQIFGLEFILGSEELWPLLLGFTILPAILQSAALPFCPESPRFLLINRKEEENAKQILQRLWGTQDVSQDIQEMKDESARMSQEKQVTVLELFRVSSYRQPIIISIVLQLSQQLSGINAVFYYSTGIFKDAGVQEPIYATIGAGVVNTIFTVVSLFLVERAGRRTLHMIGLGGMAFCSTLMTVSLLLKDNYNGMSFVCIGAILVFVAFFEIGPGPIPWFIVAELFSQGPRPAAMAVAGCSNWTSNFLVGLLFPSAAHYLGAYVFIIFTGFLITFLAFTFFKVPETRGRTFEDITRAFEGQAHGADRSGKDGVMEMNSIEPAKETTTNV

Turning to “glucuronic acid-linked bupivacaine [GluA-Bup]”, in [1] (rat, in vivo), the “mean duration of sensory block” value is 13.0 ± 2.58 h, the “mean duration of sensory blockade” value was determined as 3.75 ± 0.50 h, the sensory block success came out at 100% and the successful sensory blockade is 100%. For the same compound, in series [2] (rat, in vivo), the “duration of motor deficits / motor involvement” value is 1.625 ± 0.25 h and the motor deficits result is “without any motor deficits”.
Usually Km stands for the concentration of substrate that gives half-maximal velocity. Turning to `O=C[C@H](O)[C@@H](O)[C@@H](O)[C@H](O)CO` [galactose], the Km in series [3] (setting [11]) was 15 mM; in series [3] (read-out: Km for GLUT1), 17 mM; in [4], 8.5 mM.
On to `N[C@H]1C(O)O[C@H](CO)[C@@H](O)[C@@H]1O` (stereo partly shown) [glucosamine], for which, in series [3] (setting [11]), the Km was 2.5 mM.
For `O=C1O[C@H]([C@@H](O)CO)C(=O)C1=O` [DHA, dehydroascorbic acid], the Km in series [3] (setting [11]) is 1.1 mM.
In the case of `COc1cc(CNC(=O)CCCC/C=C/C(C)C)ccc1OC[C@H]1OC(O)[C@H](O)[C@@H](O)[C@H]1O` (stereo partly shown) [Gal-CAP prodrug, galactose-capsaicin prodrug], in [5], the “frequency of licking within 5 minutes after injection” value came out at 1±1.41 times and the “total duration of licking behavior” value was 4.55 ± 5.77 s.
As for galactosamine-fluorescein [Gal-FL], the “mean fluorescent intensity in epineurium/perineurium and inside the nerve” value in series [6] is on record as “significantly higher”.
For the compound `CCCCN1CCCCC1C(=O)Nc1c(C)cccc1C` (stereo not shown) [bupivacaine, reference compound], the successful sensory blockade result in series [1] (8.65 mM in 0.3 mL PBS) is reported as “failed to achieve a successful block”. In series [1] (17.3 mM in 0.3 mL PBS), the “mean duration of sensory block” value amounted to 1.75 ± 0.29 h and the sensory block success turned out to be 100%. In series [2] (17.3 mM in 0.3 mL PBS), the “duration of motor deficits / motor involvement” value was found to be 1.375 ± 0.48 h.
Consider galactose-capsaicin prodrug, for which, in series [1] (rat, in vivo), the “change of nociceptive axon block duration with increasing glucose dose” value is on record as “decrease in nociceptive axon block duration; also recorded: significant decrease”; the “duration of nociceptive axon blockade” value is 150.0 ± 76.8 h and 234 ± 36 h; the “successful analgesic block (thermal paw withdrawal latencies >7 seconds)” value (“successful analgesic block” for short) is 100%. In series [2] (rat, in vivo), the “motor deficits in the injected hind limb” value is listed as “did not produce any motor deficits”. In [7], the “capsaicin-related side effects (spontaneous pain behavior, contralateral block, irreversible block, seizure, acute respiratory distress)” value is given as “did not cause any capsaicin-related side effects”. Besides, in [8], the “appearance of surrounding tissues at dissection” value is recorded as “did not appear edematous or discolored”, the “microscopic examination for myotoxicity or inflammation” value is “did not reveal significant myotoxicity or inflammation” and the “toluidine blue stained sciatic nerve sections” value is listed as “normal in appearance without evidence of demyelination or axonal degeneration”.
Broadly, the logP is the decadic logarithm of the partition coefficient of the neutral form, usually between octanol and water. Lower therefore signals lower lipophilicity. In the case of `COc1cc(CNC(=O)CCCC/C=C/C(C)C)ccc1O` [capsaicin], the “successful analgesic block” value in series [1] (injection doses above 3.28 μmol) stood at 100%. Also, the “successful analgesic block” value in [1] (injection doses above 1 mg, 0.3 mL at left sciatic nerve) was 100%. The “duration of nociceptive axon block” value in series [1] (injection of 6.56 μmol) is 4.0 ± 2.0 h. Further, in [1] (single injection of 2 mg in 0.3 mL at sciatic nerve), the “duration of nociceptive axon blockade” value amounted to 4 ± 2 h. Moreover, the “duration of nociceptive axon blockade” value in [1] (single injection of 3 mg in 0.3 mL at sciatic nerve) amounted to 30 ± 12 h. Besides, the “motor deficits in the injected hind limb” value in [2] (0.5-3 mg in 0.3 mL at sciatic nerve) is recorded as “did not produce any motor deficits”. Further, the “motor deficits in the injected hind limb” value in series [2] (Example 4, doses in μmol, 0.3 mL PBS) was “did not produce any motor deficits”. Besides, in [7] (male, Sprague-Dawley), the “rats that developed acute respiratory distress” value is 75%, the “rats that developed contralateral nociceptive axon block” value turned out to be 50%, the “rats that experienced a seizure” value was determined as 25% and the “rats with irreversible nociceptive axon blockade in the injected hind limb” value came to 25%. In addition, in series [7], the “rats exhibiting at least one systemic adverse effect” value was “all rats”. In series [9], this compound yielded a logP of 3.66.
With “glycine-capsaicin prodrug [Gly-CAP prodrug]”, in series [1] (rat, in vivo), the “duration of nociceptive axon blockade” value turned out to be 17.33 ± 11.55 h and the “successful nociceptive axon blockade” value is reported as 100%.
Regarding “galacturonic acid-capsaicin prodrug [GalA-CAP prodrug]”, in series [1] (rat, in vivo), the “change of nociceptive axon block duration with increasing glucose dose” value is listed as “significantly reduced with increasing glucose dose”; the “duration of nociceptive axon blockade” value is 150.0 ± 76.8 h and 234 ± 37 h and 150 ± 76.84 h; the “successful analgesic block” value is 100%; the “time to restoration of full thermal stimulus sensitivity (return to baseline thermal latency)” value is recorded as 13 days. In series [2] (rat, in vivo), the “motor deficits in the injected hind limb” value is “did not produce any motor deficits”. Moreover, in series [7], the “capsaicin-related side effects (spontaneous pain behavior, contralateral block, irreversible block, seizure, acute respiratory distress)” value is “did not cause any capsaicin-related side effects” and the “seizures observed (systemic toxicity)” value is listed as 2 out of 4. Moreover, in series [8], the “Myotoxicity Score (median; range 0-6)” value is on record as 0; the “appearance of surrounding tissues at dissection” value is listed as “did not appear edematous or discolored”; the “myotoxicity score, median for all groups” value was found to be 0; the “unmyelinated C-fibers / axon diameter by TEM” value is “not significantly increased”. The compound also displayed a Half-lives in series [10] of under 10 min. In [5], the “frequency of licking within 5 minutes after injection” value is given as 1±0 times and the “total duration of licking behavior” value is 4.28 ± 5.81 s.
